This is an account of results in patent US8183262B2, “Pyridine derivatives as mGluR2 antagonists” (Hoffmann-La Roche Inc., priority 2007, dated 2012).

The structures appear in SMILES notation.

`Cc1cc(-c2ccc3c(c2)OCO3)cc(-c2cccc(-c3ccc(N)nc3)c2)n1` [Example 276, 5-[3-(4-Benzo[1,3]dioxol-5-yl-6-methyl-pyridin-2-yl)-phenyl]-pyridin-2-ylamine]: the melting point came to 203 °C. Regarding `Cc1cc(-c2ccc(C(F)(F)F)cc2)cc(-c2ccnc(-c3ccc(S(N)(=O)=O)s3)c2)n1` [Example 316, 5-[6-Methyl-4-(4-trifluoromethyl-phenyl)-[2,4′]bipyridinyl-2′-yl]-thiophene-2-sulfonic acid amide], the melting point was > 250 °C. With `Nc1ncc(-c2cn(-c3nc(-c4cccc(C(F)(F)F)c4)cc(C(F)(F)F)n3)cn2)cn1` [Example 139, 5-{1-[4-Trifluoromethyl-6-(3-trifluoromethyl-phenyl)-pyrimidin-2-yl]-1H-imidazol-4-yl}-pyrimidin-2-ylamine] the figure was 223 °C; with `Cc1cc(-c2ccc(C(F)(F)F)cc2)cc(-c2cccc(-c3cncc(S(N)(=O)=O)c3)c2)n1` [Example 248, 5-{3-[6-Methyl-4-(4-trifluoromethyl-phenyl)-pyridin-2-yl]-phenyl}-pyridine-3-sulfonic acid amide], > 250 °C; with `Cc1cc(-c2ccc(C(F)(F)F)cc2)nc(-c2cccc(-c3ccc(S(N)(=O)=O)s3)c2)c1` [Example 273, 5-{3-[4-Methyl-6-(4-trifluoromethyl-phenyl)-pyridin-2-yl]-phenyl}-thiophene-2-sulfonic acid amide], 211 °C.

Consider `Cc1cc(-c2cc(C(F)(F)F)nc(-c3ccnc(-c4ccc(N)nc4)c3)n2)ccc1Cl` [Example 108, 4-[4-(4-Chloro-3-methyl-phenyl)-6-trifluoromethyl-pyrimidin-2-yl]-[2,3′]bipyridinyl-6′-ylamine], for which the melting point was found to be 207 °C. Turning to `Nc1ccc(-c2nccc(-c3nc(-c4ccc(C(F)(F)F)cc4)cc(C(F)(F)F)n3)n2)cn1` [Example 101, 5-[6-Trifluoromethyl-4-(4-trifluoromethyl-phenyl)-[2,4′]bipyrimidinyl-2′-yl]-pyridin-2-ylamine], the melting point was determined as 236.5 °C. With `Cc1cc(-c2ccc(C(F)(F)F)cc2)nc(-c2ccnc(-c3ccc(S(N)(=O)=O)s3)c2)n1` [Example 197, 5-{4-[4-Methyl-6-(4-trifluoromethyl-phenyl)-pyrimidin-2-yl]-pyridin-2-yl}-thiophene-2-sulfonic acid amide] the figure was 263.5 °C; with `Cc1cc(-c2cc(C(F)(F)F)nc(-c3cccc(-c4ccc(N)nc4)c3)n2)ccc1Cl` [Example 105, 5-{3-[4-(4-Chloro-3-methyl-phenyl)-6-trifluoromethyl-pyrimidin-2-yl]-phenyl}-pyridin-2-ylamine], 168.5 °C; with `Cc1cc(-c2cc(C(F)(F)F)nc(-c3cccc(-c4cccc(S(N)(=O)=O)c4)c3)n2)ccc1C(F)(F)F` [Example 206, 3′-[4-(3-Methyl-4-trifluoromethyl-phenyl)-6-trifluoromethyl-pyrimidin-2-yl]-biphenyl-3-sulfonic acid amide], 205 °C. `Cc1cc(-c2ccc(C(F)(F)F)cc2)nc(-n2cc(-c3ccc(N)nc3)nc2C)n1` [Example 150, 5-{2-Methyl-1-[4-methyl-6-(4-trifluoromethyl-phenyl)-pyrimidin-2-yl]-1H-imidazol-4-yl}-pyridin-2-ylamine] registered a melting point of 227.5 °C. Turning to `Cc1cc(-c2ccc(C(F)(F)F)cc2)cc(-c2cccc(-c3ccc(S(N)(=O)=O)s3)n2)n1` [Example 317, 5-[6′-Methyl-4′-(4-trifluoromethyl-phenyl)-[2,2′]bipyridinyl-6-yl]-thiophene-2-sulfonic acid amide], the melting point was 243 °C (dec.). With `NS(=O)(=O)c1cccc(-c2cccc(-c3cc(C(F)(F)F)cc(-c4ccc(C(F)(F)F)cc4)n3)c2)c1` [Example 83, 3′-[4-Trifluoromethyl-6-(4-trifluoromethyl-phenyl)-pyridin-2-yl]-biphenyl-3-sulfonic acid amide] the figure was 176 to 179 °C. With `CC(C)(C)NS(=O)(=O)c1ccc(-c2cccc(-c3nc(-c4ccc(Cl)cc4)cc(C(F)(F)F)n3)c2)s1` [Example 169, 5-{3-[4-(4-Chloro-phenyl)-6-trifluoromethyl-pyrimidin-2-yl]-phenyl}-thiophene-2-sulfonic acid tert-butylamide] the figure was 197.5 °C; with `CC(=O)Nc1ccc(-c2cn(-c3nc(-c4ccc(C(F)(F)F)cc4)cc(C(F)(F)F)n3)cn2)cn1` [Example 95, N-(5-{1-[4-Trifluoromethyl-6-(4-trifluoromethyl-phenyl)-pyrimidin-2-yl]-1H-imidazol-4-yl}-pyridin-2-yl)-acetamide], 314 °C; with `Cc1cc(-c2ccc(Cl)cc2)nc(-c2ccnc(-c3cccc(S(N)(=O)=O)c3)c2)n1` [Example 189, 3-{4-[4-(4-Chloro-phenyl)-6-methyl-pyrimidin-2-yl]-pyridin-2-yl}-benzenesulfonamide], 224 °C. For `Cc1cc(-c2ccc(Cl)cc2)nc(-n2cnc(-c3ncc(S(N)(=O)=O)s3)c2)n1` [Example 200, 2-{1-[4-(4-Chloro-phenyl)-6-methyl-pyrimidin-2-yl]-1H-imidazol-4-yl}-thiazole-5-sulfonic acid amide], the melting point amounted to 255.5 °C. With `Cc1cc(-c2ccc(Cl)c(Cl)c2)nc(-c2cccc(-c3cccc(S(N)(=O)=O)c3)c2)n1` [Example 193, 3′-[4-(3,4-Dichloro-phenyl)-6-methyl-pyrimidin-2-yl]-biphenyl-3-sulfonic acid amide] the figure was 206.5 °C; with `O=S(=O)(c1cccc(-c2cc(-c3nc(-c4ccc(C(F)(F)F)cc4)cc(C(F)(F)F)n3)ccn2)c1)N1CCC(O)C1` (racemic) [Example 407, (RS)-1-(3-{4-[4-Trifluoromethyl-6-(4-trifluoromethyl-phenyl)-pyrimidin-2-yl]-pyridin-2-yl}-benzenesulfonyl)-pyrrolidin-3-ol], 234 °C. With `FC(F)(F)c1cc(-c2ccc(Cl)cc2)nc(-c2ccnc(-c3cccnc3)c2)n1` [Example 84, 4-[4-(4-Chloro-phenyl)-6-trifluoromethyl-pyrimidin-2-yl]-[2,3]bipyridinyl] the figure was 226 °C.

`Cc1cc(-c2ccc(C(F)(F)F)cc2)nc(-c2cccc(-c3cnc(N)nc3)c2)n1` [Example 115, 5-{3-[4-Methyl-6-(4-trifluoromethyl-phenyl)-pyrimidin-2-yl]-phenyl}-pyrimidin-2-ylamine] registered a melting point of 290 °C. With `Nc1ccc(-c2cn(-c3nc(-c4ccc(C(F)(F)F)c(F)c4)cc(C(F)(F)F)n3)cn2)cn1` [Example 94, 5-{1-[4-(3-Fluoro-4-trifluoromethyl-phenyl)-6-trifluoromethyl-pyrimidin-2-yl]-1H-imidazol-4-yl}-pyridin-2-ylamine] the figure was 309 °C; with `Cc1cc(-c2ccc(C(F)(F)F)c(C)c2)nc(-c2cccc(-c3cccc(S(N)(=O)=O)c3)c2)n1` [Example 416, 3′-[4-Methyl-6-(3-methyl-4-trifluoromethyl-phenyl)-pyrimidin-2-yl]-biphenyl-3-sulfonic acid amide], 222.5 °C. With `Cc1cc(-c2cc(C(F)(F)F)nc(-c3cccc(-c4ccc(N)nc4)c3)n2)ccc1C(F)(F)F` [Example 119, 5-{3-[4-(3-Methyl-4-trifluoromethyl-phenyl)-6-trifluoromethyl-pyrimidin-2-yl]-phenyl}-pyridin-2-ylamine] the figure was 207 °C; with `Nc1ccc(-c2cc(-c3nc(-c4ccc(C(F)(F)F)cc4)cc(C(F)F)n3)ccn2)cn1` [Example 88, 4-[4-Difluoromethyl-6-(4-trifluoromethyl-phenyl)-pyrimidin-2-yl]-[2,3′]bipyridinyl-6′-ylamine], 210 °C. With `Cc1cc(-c2ccc(C(F)(F)F)cc2)cc(-c2cccc(-c3cccc(S(=O)(=O)N4CCC4)c3)n2)n1` [Example 426, 6′-[3-(Azetidine-1-sulfonyl)-phenyl]-6-methyl-4-(4-trifluoromethyl-phenyl)-[2,2′]bipyridinyl] the figure was 158 °C; with `Cc1cc(-c2ccc(Cl)cc2)nc(-c2cccc(-c3ccc(S(N)(=O)=O)s3)c2)n1` [Example 173, 5-{3-[4-(4-Chloro-phenyl)-6-methyl-pyrimidin-2-yl]-phenyl}-thiophene-2-sulfonic acid amide], 227 °C; with `CC(C)(CO)NS(=O)(=O)c1cccc(-c2cn(-c3cc(C(F)(F)F)cc(-c4ccc(C(F)(F)F)cc4)n3)cn2)c1` [Example 291, N-(2-Hydroxy-1,1-dimethyl-ethyl)-3-{1-[4-trifluoromethyl-6-(4-trifluoromethyl-phenyl)-pyridin-2-yl]-1H-imidazol-4-yl}-benzenesulfonamide], 150 °C (dec.). For `Cc1cc(-c2ccc(Cl)cc2)nc(-n2cnc(-c3ccc(N)nc3)c2)n1` [Example 43, 5-{1-[4-(4-Chloro-phenyl)-6-methyl-pyrimidin-2-yl]-1H-imidazol-4-yl}-pyridin-2-ylamine], the melting point fell in the range of 206 to 208 °C. With `NS(=O)(=O)c1ccc(-c2cc(-c3nc(-c4ccc(F)cc4)cc(C(F)(F)F)n3)ccn2)s1` [Example 397, 5-{4-[4-(4-Fluoro-phenyl)-6-trifluoromethyl-pyrimidin-2-yl]-pyridin-2-yl}-thiophene-2-sulfonic acid amide] the figure was 282 °C; with `NS(=O)(=O)c1ccc(-c2cn(-c3nc(-c4ccc(Cl)c(Cl)c4)cc(C(F)(F)F)n3)cn2)cc1` [Example 211, 4-{1-[4-(3,4-Dichloro-phenyl)-6-trifluoromethyl-pyrimidin-2-yl]-1H-imidazol-4-yl}-benzenesulfonamide], 334 °C; with `NS(=O)(=O)c1cccc(-c2cc(-c3nc(-c4ccc(Cl)c(Cl)c4)cc(C(F)(F)F)n3)ccn2)c1` [Example 203, 3-{4-[4-(3,4-Dichloro-phenyl)-6-trifluoromethyl-pyrimidin-2-yl]-pyridin-2-yl}-benzenesulfonamide], 247 °C. With `Nc1ccc(-c2cc(-c3cc(-c4ccc(C(F)(F)F)cc4)cc(C4CC4)n3)ccn2)cn1` [Example 77, 6-Cyclopropyl-4-(4-trifluoromethyl-phenyl)-[2,4′;2′,3″]terpyridin-6″-ylamine] the figure was 172 to 174 °C.
